The values that follow come from US10206398B2, “Five-membered C-N-attached aryl sulphide and aryl sulphoxide derivatives as pesticides” (BAYER CROPSCIENCE AKTIENGESELLSCHAFT, priority 2014, dated 2019).

A short description of series [1]: log P determination by HPLC on reversed-phase columns (C 18), analogous to OECD Guideline 117. Format: physicochemical. To be noted: for chromatographic logP: reversed-phase HPLC column (C 18); for logP[a]: method [a]; for logP[b]: method [b]. Here is the method: The log P values were determined analogously to OECD Guideline 117 (EC Directive 92/69/EEC) by HPLC (high-performance liquid chromatography) using reversed-phase columns (C 18), by the following methods: [a] The LC-MS determination in the acidic range was effected at pH 2.7 with 0.1% aqueous formic acid and acetonitrile (contains 0.1% formic acid) as eluents; linear gradient from 10% acetonitrile to 95% acetonitrile. log P[a] is also referred to as log P(HCOOH). [b] LC-MS determination in the neutral range was effected at pH 7.8 with 0.001 molar aqueous ammonium hydrogencarbonate solution and acetonitrile as eluents; linear gradient from 10% acetonitrile to 95% acetonitrile. log P[b] is also referred to as log P(neutral). Calibration is effected with solutions of a homologous series of unbranched alkan-2-ones (having 3 to 16 carbon atoms) with known log P values (log P values determined on the basis of the retention times by linear interpolation between two successive alkanones).

In another series the test system is Tetranychus urticae. Description: Tetranychus urticae - spray test, OP-resistant (bean leaf discs, 6 days). Format: in vivo. To be noted: 500 g/ha, after 6 days. The method, then:
5. Tetranychus urticae—Spray Test, OP-Resistant
Solvent: 78.0 parts by weight of acetone
• 1.5 parts by weight of dimethylformamide Emulsifier: alkylaryl polyglycol ether
To produce a suitable preparation of active compound, 1 part by weight of active compound is dissolved using the stated parts by weight of solvent and made up with water containing an emulsifier concentration of 1000 ppm until the desired concentration is attained. To produce further test concentrations, the preparation is diluted with emulsifier-containing water.
Discs of bean leaves (Phaseolus vulgaris) infested with all stages of the greenhouse red spider mite (Tetranychus urticae) are sprayed with an active compound preparation of the desired concentration.
After 6 days, the efficacy in % is determined. 100% means that all the spider mites have been killed; 0% means that no spider mites have been killed.

A further series concerns Meloidogyne incognita. The series can be described thus: Meloidogyne incognita - test. Format: in vivo. To be noted: 20 ppm, lettuce, after 14 days. Here is the method:
2. Meloidogyne incognita—Test Solvent: 125.0 parts by weight of acetone To produce a suitable preparation of active compound, 1 part by weight of active compound is mixed with the stated amount of solvent and the concentrate is diluted with water to the desired concentration. Vessels are filled with sand, active compound solution, an egg/larvae suspension of the southern root-knot nematode (Meloidogyne incognita) and lettuce seeds. The lettuce seeds germinate and the plants develop. The galls develop on the roots. After 14 days, the nematicidal efficacy in % is determined by the formation of galls. 100% means that no galls were found; 0% means that the number of galls on the treated plants corresponds to the untreated control.

SMILES strings stand for the structures. Where “and” joins values, the source holds several entries; their conditions need not be identical. Equal values may be shown once. Read-outs that look alike come from different tables or passages of the source.

Consider `Cc1cc(F)c(N2C(=O)CN(C(=O)N3CCOCC3)C2=O)cc1SCC(F)(F)F` [Ex. No. 122, 3-[2-Fluoro-4-methyl-5-(2,2,2-trifluoroethylsulphanyl)phenyl]-1-(morpholine-4-carbonyl)imidazolidine-2,4-dione], for which the chromatographic logP in series [1] (pH 2.7, HPLC, acidic range, pH 2.7, 0.1% aqueous formic acid and acetonitrile, read-out: log P(HCOOH)) was determined as 2.61; in series [1] (pH 2.7, method [a], read-out: logP[a]) it was 2.58; in series [1] (pH 7.8, HPLC, neutral range, pH 7.8, 0.001 molar aqueous ammonium hydrogencarbonate and acetonitrile, read-out: log P(neutral)), 2.58; in series [1] (pH 7.8, method [b], read-out: logP[b]) it was 2.62. Besides, the pest or weed control at 500 g/ha in the series on Tetranychus urticae (Tetranychus urticae, foliar, 144 h, read-out: efficacy (spider mites killed)) was 100%. Further, the “nematicidal efficacy (formation of galls)” value with Meloidogyne incognita worked out at 90%.

Turning to `Cc1cc(C)c(N2C(=O)CN(C(=O)NC(C)(C)C)C2=O)cc1SCC(F)(F)F` [compound 33], in series [1], the “logP[a]” value came out at 3.86 and the “logP[b]” value amounted to 3.89. Moreover, the “efficacy (spider mites killed)” value in the series on Tetranychus urticae came out at 100%.

As for `Cc1cc(C)c(N2C(=O)CN(C(=O)NCC(C)C)C2=O)cc1SCC(F)(F)F` [compound 34], in series [1], the “logP[a]” value came to 3.80 and the “logP[b]” value is listed as 3.69. The “efficacy (spider mites killed)” value in the series on Tetranychus urticae was 100%.

For `Cc1cc(C)c([S+]([O-])CC(F)(F)F)cc1N1C(=O)CN(C(=O)NC(C)(C)C)C1=O` (stereo not drawn) [compound 40], in series [1], the “logP[a]” value is 2.90 and the “logP[b]” value is given as 2.83. In the series on Tetranychus urticae, the “efficacy (spider mites killed)” value is recorded as 100%.

As for `Cc1cc(F)c(N2C(=O)CN(C(=O)Nc3cccc(Cl)c3)C2=O)cc1SCC(F)(F)F` [compound 45], in series [1], the “logP[a]” value stood at 4.23 and the “logP[b]” value is 4.16. The “efficacy (spider mites killed)” value in the series with Tetranychus urticae was determined as 100%.

With `Cc1cc(C)c(N2C(=O)CN(C(=O)NC3CC3)C2=O)cc1SCC(F)(F)F` [compound 49], in series [1], the “logP[a]” value was determined as 1.36 and the “logP[b]” value is 2.81. For the same molecule, in the series with Tetranychus urticae, the “efficacy (spider mites killed)” value came out at 100%.

`CCNC(=O)N1CC(=O)N(c2cc(SCC(F)(F)F)c(C)cc2Cl)C1=O` [compound 51]: in series [1], the “logP[a]” value worked out at 3.19 and the “logP[b]” value is listed as 3.13. In the series on Tetranychus urticae, the “efficacy (spider mites killed)” value turned out to be 100%.

`Cc1cc(Cl)c(N2C(=O)CN(C(=O)NCC(C)C)C2=O)cc1SCC(F)(F)F` [compound 52]: in series [1], the “logP[a]” value is listed as 3.93 and the “logP[b]” value was 3.78. Besides, the “efficacy (spider mites killed)” value in the series with Tetranychus urticae is 100%.

Take `Cc1cc(C)c(N2C(=O)CN(C(=O)Nc3cccc(CC(F)(F)F)c3)C2=O)cc1SCC(F)(F)F` [compound 55]: in series [1], the “logP[a]” value is 4.43 and the “logP[b]” value was found to be 4.35. Moreover, the “efficacy (spider mites killed)” value with Tetranychus urticae is recorded as 90%.

Consider `Cc1cc(Cl)c(N2C(=O)CN(C(=O)NCc3ccccc3)C2=O)cc1SCC(F)(F)F` [compound 57], for which, in series [1], the “logP[a]” value is given as 3.81 and the “logP[b]” value turned out to be 3.61. Also, in the series with Tetranychus urticae, the “efficacy (spider mites killed)” value was 100%.

`Cc1cc(Cl)c(N2C(=O)CN(C(=O)Nc3cccc(CC(F)(F)F)c3)C2=O)cc1SCC(F)(F)F` [compound 58]: in series [1], the “logP[a]” value was found to be 4.51 and the “logP[b]” value is listed as 4.38. Moreover, the “efficacy (spider mites killed)” value in the series with Tetranychus urticae is recorded as 100%.

On to `Cc1cc(Cl)c(N2C(=O)CN(C(=O)Nc3cccc(Cl)c3)C2=O)cc1SCC(F)(F)F` [compound 59], for which, in series [1], the “logP[a]” value worked out at 4.46 and the “logP[b]” value came to 4.28. Also, in the series on Tetranychus urticae, the “efficacy (spider mites killed)” value is 100% and 90%.

For the molecule `Cc1cc(C)c([S+]([O-])CC(F)(F)F)cc1N1C(=O)CN(C(=O)NC2CC2)C1=O` (stereo not drawn) [compound 60], in series [1], the “logP[a]” value was found to be 2.24 and the “logP[b]” value worked out at 2.17. The “efficacy (spider mites killed)” value with Tetranychus urticae is given as 100%.

For `Cc1cc(C)c([S+]([O-])CC(F)(F)F)cc1N1C(=O)CN(C(=O)NCC(F)(F)F)C1=O` (stereo not drawn) [compound 61], in series [1], the “logP[a]” value amounted to 2.54 and the “logP[b]” value was found to be 2.47. Also, in the series with Tetranychus urticae, the “efficacy (spider mites killed)” value is 100%.

For the molecule `CCNC(=O)N1CC(=O)N(c2cc([S+]([O-])CC(F)(F)F)c(C)cc2Cl)C1=O` (stereo not drawn) [compound 64], in series [1], the “logP[a]” value stood at 2.23 and the “logP[b]” value stood at 2.24. Also, the “efficacy (spider mites killed)” value in the series on Tetranychus urticae is 100%.

For `COCCNC(=O)N1CC(=O)N(c2cc(SCC(F)(F)F)c(C)cc2F)C1=O` [compound 66], in series [1], the “logP[a]” value came to 2.77 and the “logP[b]” value stood at 2.76. The “efficacy (spider mites killed)” value in the series with Tetranychus urticae worked out at 100%.

Turning to `Cc1cc(F)c(N2C(=O)N(C(=O)NCC(C)C)C(C)(C)C2=O)cc1SCC(F)(F)F` [compound 76], in series [1], the “logP[a]” value was 4.51 and the “logP[b]” value is given as 4.42. For the same molecule, in the series with Tetranychus urticae, the “efficacy (spider mites killed)” value was 100% and 90%.

As for `Cc1cc(F)c(N2C(=O)N(C(=O)NCc3ccccc3)C(C)(C)C2=O)cc1SCC(F)(F)F` [compound 77], in series [1], the “logP[a]” value is given as 4.37 and the “logP[b]” value came to 4.33. The “efficacy (spider mites killed)” value in the series on Tetranychus urticae is 100%.

For `Cc1cc(C)c(N2C(=O)CN(C(=O)NCc3ccccc3)C2=O)cc1SCC(F)(F)F` [compound 92], in series [1], the “logP[a]” value is recorded as 3.75 and the “logP[b]” value is 3.66. Moreover, the “efficacy (spider mites killed)” value in the series on Tetranychus urticae is listed as 90%.

In the case of `Cc1cc(Cl)c(N2C(=O)CN(C(=O)Nc3ccc(F)cc3)C2=O)cc1SCC(F)(F)F` [compound 94], in series [1], the “logP[a]” value is 4.05 and the “logP[b]” value worked out at 3.96. Also, the “efficacy (spider mites killed)” value in the series with Tetranychus urticae was 100%.

Take `Cc1cc(F)c(N2C(=O)CN(C(=S)NCC(F)(F)F)C2=O)cc1SCC(F)(F)F` [compound 102]: in series [1], the “logP[a]” value is 3.71 and the “logP[b]” value is listed as 3.84. In addition, in the series with Tetranychus urticae, the “efficacy (spider mites killed)” value is recorded as 100%.

In the case of `O=C(NC1CC1)N1CC(=O)N(c2cc(SCC(F)(F)F)c(Cl)cc2Cl)C1=O` [compound 104], in series [1], the “logP[a]” value came out at 3.3 and the “logP[b]” value came out at 3.37. In addition, the “efficacy (spider mites killed)” value with Tetranychus urticae is listed as 100%.

In the case of `CC(C)CNC(=O)N1CC(=O)N(c2cc(SCC(F)(F)F)c(Cl)cc2Cl)C1=O` [compound 105], in series [1], the “logP[a]” value worked out at 3.91 and the “logP[b]” value amounted to 3.99. The “efficacy (spider mites killed)” value in the series on Tetranychus urticae is 100%.

In the case of `O=C(Nc1cccc(Cl)c1)N1CC(=O)N(c2cc(SCC(F)(F)F)c(Cl)cc2Cl)C1=O` [compound 109], in series [1], the “logP[a]” value is 4.49 and the “logP[b]” value worked out at 4.56. Moreover, in the series with Tetranychus urticae, the “efficacy (spider mites killed)” value turned out to be 90%.

For `O=C(Nc1cccc(C(F)(F)F)c1)N1CC(=O)N(c2cc(SCC(F)(F)F)c(Cl)cc2Cl)C1=O` [compound 110], in series [1], the “logP[a]” value was 4.56 and the “logP[b]” value stood at 4.61. For the same molecule, in the series with Tetranychus urticae, the “efficacy (spider mites killed)” value turned out to be 100%.

For the molecule `Cc1cc(F)c(N2C(=O)CN(C(=O)N3CCN(C)CC3)C2=O)cc1SCC(F)(F)F` [compound 123], in series [1], the “logP[a]” value amounted to 2.5 and the “logP[b]” value was 1.51. Further, the “efficacy (spider mites killed)” value in the series with Tetranychus urticae turned out to be 100%.

Turning to `Cc1cc(F)c(N2C(=O)CN(C(=O)N3CCN(C)CC3)C2=O)cc1[S+]([O-])CC(F)(F)F` (stereo not drawn) [compound 127], in series [1], the “logP[a]” value amounted to 1.72 and the “logP[b]” value is on record as 1.61. Moreover, the “efficacy (spider mites killed)” value with Tetranychus urticae is given as 100%.

For `Cc1cc(F)c(N2C(=O)CN(C(=O)N3CCS(=O)(=O)CC3)C2=O)cc1SCC(F)(F)F` [compound 128], in series [1], the “logP[a]” value came out at 2.4 and the “logP[b]” value was determined as 2.44. Besides, the “nematicidal efficacy (formation of galls)” value in the series on Meloidogyne incognita is on record as 100%.

For the molecule `Cc1cc(F)c(N2C(=O)CN(C(=O)N(C)C)C2=O)cc1[S+]([O-])CC(F)(F)F` (stereo not drawn) [compound 133], in series [1], the “logP[a]” value came out at 1.75 and the “logP[b]” value is given as 1.78. The “efficacy (spider mites killed)” value in the series with Tetranychus urticae came to 100%.

As for `Cc1cc(F)c(N2C(=O)CN(C(=O)N3CCS(=O)(=O)CC3)C2=O)cc1[S+]([O-])CC(F)(F)F` (stereo not drawn) [compound 134], in series [1], the “logP[a]” value is recorded as 1.66 and the “logP[b]” value worked out at 1.69. Further, the “efficacy (spider mites killed)” value with Tetranychus urticae is on record as 90%.
